“Also recorded” adds a separate entry of the source. Counter-ions that a name gives are not always drawn. Like-named read-outs stand apart in the source and are kept apart here. Some results are limits rather than exact numbers.

Data set [1] in a line: toxicity for uninfected mice. Conditions: mouse, in vivo. From the text:
(§1) The method employed in this characterization is as follows: Female white Swiss mice, average weight 20-23 grams, were infected intraperitoneally with 3-20 times the number of organisms calculated to be lethal for 50% of the infected control animals (3-20 LD50 doses). At the time of infection and again six hours later, therapy was given by the designated route. Controls of the virulence of the culture and the toxicity of the antibiotic for uninfected mice were included in the tests. Seven days after infection the test was considered complete and the amount of the antibiotic (I) that would be required to protect 50% of the infected and treated animals was calculated by the method of Knudsen and Curtis; J. Amer. Stat. Assoc. Vol. 42: page 282 (1947).

The subject of a further data set is cephalosporinases. Nature of the data set: resistance to cephalosporinases / penicillinase. Format: biochemical.
Data set [2] has as its system gram-negative and gram-positive infections. Briefly: in vivo protection against infection (summary statements). More on the design: species or system mice. Conditions: for protection against infections, oral: given orally; for in vivo protection / activity: mouse; for protection: 4000 mg. × dose, subcutaneous, infection not marked.
Excerpt: as §1
The method employed in these studies is the same as described above with regard to the in vivo characterization of 810A.

Data set [3] relates to gram-negative and gram-positive bacteria. Briefly: in vitro antibacterial activity (summary statements). Format: cell-based.
The next data set relates to certain microorganisms. Briefly: resistance to bacterial inactivation / enzymatic degradation (summary statements). Format: biochemical. From the text:
Bacterial Inactivation With 810A: An in vitro study was designed to determine the resistance of Antibiotic 810A, to bacterial inactivation as compared with cephalosporin C, cephaloridine and cephalothin.

The next data set concerns Vibrio percolans MB-1272. Nature of the data set: disc-plate bioassay. Conditions: for zone of inhibition at 100 µg/mL / zone of inhibition at 5 µg/mL: Comamonas terrigena.
Data set [4] relates to Aerobacter cloacae (MB-2646). Briefly: bacterial inactivation, cell-free extract. Format: biochemical. Here is the method: The ability of Antibiotic 810A and cephalosporin C to withstand the degradative effect of the culture Aerobacter cloacae (MB-2646) was also determined. This culture is gram-negative and resistant to cephalosporin C. […] The source of the inactivating substance is a 1:160 dilution of the filtrate of an 18 hour 37° C. shake culture of Aerobacter cloacae MB-2646 in nutrient broth containing 0.2% yeast extract. Table XIV, infra, indicates the percent inactivation of Antibiotic 810A, cephalothin, cephaloridine and cephalosporin C on Vibrio percolans (MB-1272) via this method:
Using the same assay procedure as described above, Table XV, infra, indicates the relative resistance of Antibiotic 810A to enzymatic inactivation by Aerobacter cloacae. The starting concentration is 250 μg./ml. Results are expressed in μg./ml.

In data set [5] the test system is Proteus morganii 356. Briefly: mouse protection test, clinical isolate resistant to cephalosporins. It counts as in vivo, mice. Conditions: Subcutaneous Route × 2 Doses (average of Two Trials).
Excerpt: as §1
Administration was by subcutaneous injection. At the completion of the test period, usually seven days after administration, the amount of product required to protect 50% of the mice (ED50) from this otherwise fatal injection was calculated:
In addition to the aforementioned in vivo trails of the product, a clinical isolate of Proteus morganii 356 which is resistant to cephalosporins and capable of degrading cephalosporin C, was employed in a mouse protection test performed in the same manner as reported above.

Data set [6] relates to gram-negative and gram-positive bacteria. Conditions: cited from earlier work.
A further data set relates to Escherichia coli 236. Nature of the data set: bacterial inactivation. Conditions: four hours incubation; on B. subtilis (MB-964); 240 min. Here is the method:
(§2) These cultures are: Escherichia coli 236, Proteus morganii 251, Proteus morganii 356 and Proteus mirabilis 241. […] In conducting the assay individual mixtures of the organisms and one of the antibiotic were sampled after four hours incubation and assayed for residual antibiotic activity. The procedure is the same assay method as described above against Alcaligenes faecalis MB-9 and A. viscosus MB-12.

For the next data set, the system named is Proteus morganii 251. Nature of the data set: bacterial inactivation. Here is the method: as §2
In a further data set the test system is Proteus mirabilis 241. Briefly: bacterial inactivation. Here is the method: as §2
Data set [7] deals with Proteus morganii 356. Nature of the data set: bacterial inactivation. Here is the method:
as §2

In the next data set the test system is penicillinase. Conditions: cited from earlier work.
In data set [8] the test system is Alcaligenes faecalis (MB-9). Nature of the data set: bacterial inactivation, washed bacterial cells.
The test system of data set [9] is Pseudomonas stutzeri MB-1231. Nature of the data set: disc-plate bioassay of derivatives. Conditions: Stutzerimonas stutzeri, MB1231, equal concentrations, 100γ/ml (Example 71); read-out: disc zone size. Format: cell-based. From the text: (§3) Bioassay: The disc zone sizes in the following table are expressed in mm. for 100 γ/ml of antibiotic.
(§4) Bioassay: The disc zone sizes in the following table are expressed in mm. for equal concentrations of antibiotic.

The next data set concerns Escherichia coli W-MB-60. Nature of the data set: disc-plate bioassay of derivatives. It counts as cell-based. Conditions: 100 γ/ml (Example 78).
Excerpt: as §3, §4

For data set [10], the system named is Salmonella gallinarum MB-1287. Briefly: disc-plate bioassay of derivatives. It counts as cell-based. Conditions: 100γ/ml (Example 77).
Excerpt: as §4

Data set [11] is described as follows: urinary excretion and blood levels. It counts as in vivo, mice. Conditions: mouse.
Data set [12] is described as follows: isoelectric point and pH stability. Format: physicochemical. Conditions: for stability, low pH: pH 1.5.
Setting [13] is: 2 Hour Incubation, assayed on V. percolans (MB-1272) plates.
[14] abbreviates: four hours incubation, on B. subtilis (MB-964), 240 min.

`COC(=Cc1ccc(OS(=O)(=O)O)cc1)C(=O)OCC1=C(C(=O)O)N2C(=O)[C@](NC(=O)CCC[C@@H](N)C(=O)O)(OC)[C@H]2SC1` [7β-(D-5-amino-5-carboxyvaleramido)-3-(α-methoxy-p-sulfooxycinnamoyloxymethyl)-7-methoxy-3-cephem-4-carboxylic acid]: the “toxicity” value in [1] is “low order of toxicity in mice”. In the data set on cephalosporinases, the resistance to cephalosporinases result was “greater resistance to cephalosporinases than cephalothin”. Besides, in data set [2], the “protection against infections, oral” value is “protects against infections due to Proteus vulgaris”; the “in vivo protection / activity” value was “when administered subcutaneously, it is effective against a variety of gram-negative and gram-positive infections”. For the same compound, the “bactericidal action / development of resistance” value in [3] was “bactericidal”. In addition, the “resistance to inactivation / enzymatic degradation” value in the data set with certain microorganisms is “more resistant to enzymatic degradation than cephalosporin C”.

Regarding `CO[C@@]1(NC(=O)CCC[C@@H](N)C(=O)O)C(=O)N2C(C(=O)O)=C(C)CS[C@@H]21` [7β-(D-5-amino-5-carboxyvaleramido)-3-methyl-7-methoxy-3-cephem-4-carboxylic acid], the Bioactivity result in the data set on Vibrio percolans MB-1272 (50 ug/ml) was “Inactive at 50 ug/ml”.

For the compound `O=C(Cc1cccs1)N[C@@H]1C(=O)N2C(C(=O)[O-])=C(C[n+]3ccccc3)CS[C@H]12` [Cephaloridine], in data set [4] (aerobacter cloacae cell-free extract, 2 h), the “Percent Inactivation After Incubation With Cell-Free Extract” value was determined as 96%. The protection entry in data set [2] is “failed to protect at 4000 mg. × dose”. Moreover, in the data set on Proteus morganii 356 [5], the ED50 was 9,270 μg.

For the compound `CC(=O)OCC1=C(C(=O)O)N2C(=O)[C@@H](NC(=O)CCC[C@@H](N)C(=O)O)[C@H]2SC1` [Cephalosporin C], in data set [4] (setting [13]), the “Percent Inactivation After Incubation With Cell-Free Extract” value is reported as 96%. The “antibacterial activity (background, words)” value in [6] was “only moderately active”. The percent inactivation in the data set on Escherichia coli 236 is on record as > 99%; with Proteus morganii 251 (setting [14]) it was > 99%; in the data set with Proteus mirabilis 241 (setting [14]), 72%; with Proteus morganii 356 [7] (setting [14]) it was > 99%. Moreover, the “resistance to / degradation by penicillinase” value in the data set with penicillinase is on record as “possesses an inherent resistance to penicillinase”. The “Percent Inactivation After Incubation With Washed Bacterial Cells” value was > 99% in [8] (3 Hour Incubation, assayed on V. percolans (MB-1272) plates) and > 99% in data set [8] (3 Hours Incubation, assayed on B. subtilis (MB-964) plates).

For `CC(=O)OCC1=C(C(=O)O)N2C(=O)[C@@H](NC(=O)Cc3cccs3)[C@H]2SC1` [Cephalothin], the “Percent Inactivation After Incubation With Cell-Free Extract” value in data set [4] (setting [13]) is on record as 66%. In [2], the protection result is recorded as “failed to protect at 4000 mg. × dose”. Also, in the data set with Proteus morganii 356 [5], the ED50 is listed as 20,000 μg.

On to `CO[C@@]1(NC(=O)CCC[C@@H](N)C(=O)O)C(=O)N2C(C(=O)O)=C(COC(N)=O)CS[C@@H]21` [Disodium Salt of 842A], for which the zone of inhibition at 100 µg/mL is 21 mm in data set [9]; > 35 mm with Vibrio percolans MB-1272 (MB1272, read-out: disc zone size, 100γ/ml (Example 77)); 23 mm with Vibrio percolans MB-1272 (MB1272, read-out: disc zone size, 100 γ/ml (Example 78)). Besides, the disc zone size with Escherichia coli W-MB-60 turned out to be 18 mm; in [10], 27 mm. For the same compound, the zone of inhibition at 5 µg/mL amounted to 18 mm in the data set with Vibrio percolans MB-1272 (MB1272, read-out: disc zone size, Example 70, (5γ/ml) printed at end of line, head 100γ/ml) and 18 mm in the data set on Vibrio percolans MB-1272 (MB1272, read-out: disc zone size, equal concentrations, 5γ/ml (Example 71)).

Take `CO[C@@]1(NC(=O)CCC[C@@H](N)C(=O)O)C(=O)N2C(C(=O)O)=C(COC(N)=O)CS[C@@H]21` [Example 842A]: the “blood levels / excretion” value in data set [11] (in vivo) is listed as “produces rapid blood levels; also recorded: rapidly excreted in the urine”. For the same compound, in data set [11] (urine, within six hours after administration, read-out: eliminated in the urine), the dose excreted at 6 h was ~100%. Also, the percent inactivation with Escherichia coli 236 is listed as 38%; with Proteus morganii 251 (bacterial cells, 4 h), 80%; in the data set with Proteus mirabilis 241 (bacterial cells, 4 h), 5%; with Proteus morganii 356 [7] (bacterial cells, 4 h), 69%. For the same compound, the “protection against infections, oral” value in data set [2] was “protects against infections due to Paracolobactrum arizoniae 3270, Proteus vulgaris 1810, and Salmonella schottmuelleri 3010”. Moreover, the “in vivo protection / activity” value in data set [2] (listed as Antibiotic 842A) was “protects against infection with three species of Proteus, two of Salmonella, one strain of Escherichia coli, two of Klebsiella and also against Paracolobactrum arizoniae, Aerobacter aerogenes, Pasteurella multocida and Diplococcus pneumoniae E400; also recorded: exhibits a significant in vivo gram-negative effect with a potency which, in general, is greater than cephalothin”. In addition, the “stability, high pH” value in data set [12] was “unstable above pH 7”; in data set [12] (listed as Antibiotic 842A), “unstable above pH 9.0”. Besides, the entries for the “stability, low pH” value in data set [12] and in [12] (listed as Antibiotic 842A) were “stable at pH 1.5” and “relatively stable at pH 1.5”, respectively. Moreover, the “antibacterial activity” value is “exhibits activity against Salmonella schottmuelleri 3010, S. gallinarum and S. typhosa” in data set [3]; “inhibits the growth of the following gram-negative bacteria: Escherichia coli, Proteus vulgaris, Alcaligenes faecalis, Brucella bronchiseptica, Salmonella gallinarum, Vibrio percolans and Xanthomonas vesicatoria; also recorded: inhibits the growth of the following gram-positive bacteria: Staphylococcus aureus, Sarcina lutea and Bacillus subtilis; also recorded: enhanced activity against gram-negative microorganisms” in data set [3] (listed as Antibiotic 842A). Moreover, in [3], the “bactericidal action / development of resistance” value was “resistance to it develops slowly and it is bactericidal”. Besides, in data set [8] (4 Hour Incubation, assayed on B. subtilis (MB-964) plates), the “Percent Inactivation After Incubation With Washed Bacterial Cells” value was 0%. Further, the “resistance to inactivation / enzymatic degradation” value in the data set on certain microorganisms is “more resistant to enzymatic degradation than cephalosporin C”; in the data set with certain microorganisms (listed as Antibiotic 842A), “more stable than the latter against certain microorganisms; also recorded: more resistant than cephalosporin C to inactivation by A. faecalis, A. viscosus, Escherichia coli 236, Proteus morganii 251, Proteus morganii 236 and Proteus mirabilis 241”.

With `CC1(C)S[C@@H]2[C@H](NC(=O)Cc3ccccc3)C(=O)N2[C@H]1C(=O)O` [Penicillin G], the “resistance to / degradation by penicillinase” value with penicillinase is recorded as “in the presence of penicillinase it is degraded to a form which is ineffective against most pathogens”.

Values taken from patent US4302578A, “Cephalosporin antibiotics” (priority 1971, dated 1981).
